Molecular target: T1, Human Glucocorticoid Receptor (Homo sapiens, UniProt P04150)
T1 construct: endogenous in cells; host or cells: cytosol from IM-9 cell line
T1 sequence (P04150 1-777): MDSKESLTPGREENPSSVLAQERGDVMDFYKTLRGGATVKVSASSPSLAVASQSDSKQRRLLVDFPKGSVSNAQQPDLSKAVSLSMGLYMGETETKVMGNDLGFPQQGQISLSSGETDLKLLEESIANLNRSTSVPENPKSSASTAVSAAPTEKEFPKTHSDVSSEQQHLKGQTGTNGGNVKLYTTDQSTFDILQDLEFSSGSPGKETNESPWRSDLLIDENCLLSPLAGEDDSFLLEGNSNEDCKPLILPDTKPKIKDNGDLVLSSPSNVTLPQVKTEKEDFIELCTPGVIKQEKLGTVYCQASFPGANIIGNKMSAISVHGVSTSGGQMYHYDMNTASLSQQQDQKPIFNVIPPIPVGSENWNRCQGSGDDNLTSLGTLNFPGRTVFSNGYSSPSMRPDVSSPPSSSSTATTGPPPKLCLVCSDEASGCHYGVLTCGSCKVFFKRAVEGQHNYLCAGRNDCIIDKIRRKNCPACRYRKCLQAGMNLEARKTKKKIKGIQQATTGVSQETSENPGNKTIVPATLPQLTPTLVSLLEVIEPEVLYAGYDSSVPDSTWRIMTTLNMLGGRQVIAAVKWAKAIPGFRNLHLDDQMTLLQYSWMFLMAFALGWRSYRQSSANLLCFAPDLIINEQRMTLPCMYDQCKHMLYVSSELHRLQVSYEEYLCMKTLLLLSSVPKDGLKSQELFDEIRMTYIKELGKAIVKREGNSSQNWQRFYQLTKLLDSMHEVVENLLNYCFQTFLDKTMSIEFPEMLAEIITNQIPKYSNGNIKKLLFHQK
Experiment: Competition Binding in IM-9 Human Glucocorticoid Receptor (GR IM-9)
Conditions: cytosol from IM-9 cell line, 1.5 nM [3H]-Dexamethasone, 4° C. for 6 hours
Procedure: Competition Binding in IM-9 Human Glucocorticoid Receptor (GR IM-9)
Glucocorticoid receptor competition binding assays were carried out in a polypropilene 96-well plate. In each well was incubated 100 μg of cytosol from IM-9 cell line, 1.5 nM [3H]-Dexamethasone (71 Ci/mmol, 1 mCi/ml, Perkin Elmer NET1192001MC) and compounds studied and standard. Non-specific binding was determined in the presence of Triamcinolone 10 μM (Sigma Aldrich T6376).
The reaction mixture (Vt: 200 μl/well) was incubated at 4° C. for 6 hours, 180 μL was transferred to GF/B 96-well plate (Millipore, Madrid, Spain) pretreated with 0.5% of PEI and treated with binding buffer (TES 10 mM, sodium molybdate 10 mM, EDTA 1 mM, pH 7.4, 2-mercaptoethanol 20 mM, Glycerol 10%) after was filtered and washed six times with 250 μl wash buffer (TES 10 mM, sodium molybdate 10 mM, EDTA 1 mM, pH 7.4, 2-mercaptoethanol 20 mM Glycerol 10%), before measuring in a microplate beta scintillation counter (Microbeta Trilux, PerkinElmer, Madrid, Spain).

Question: With `CC(=O)C1=C(C)NC(C2CC2)=C(C(=O)OC(C)(C)c2ccc(F)cc2)C1c1csc2ncccc12` (stereo not shown) [Example C97, 2-(4-fluorophenyl)propan-2-yl 5-acetyl-2-cyclopropyl-6-methyl-4-(thieno[2,3-b]pyridin-3-yl)-1,4-dihydropyridine-3-carboxylate] as the compound, how does the IC50 read?
Answer: < 100 nM

Question: How did the IC50 turn out when `COC(=O)C1=C(C)NC(C2CC2)=C(C(=O)OC)C1c1csc2c(C#N)cccc12` (stereo not shown) [Example C103, Dimethyl 4-(7-cyanobenzo[b]thiophen-3-yl)-2-cyclopropyl-6-methyl-1,4-dihydropyridine-3,5-dicarboxylate] was run?
Answer: < 100 nM

Question: With `COC(=O)C1=C(C2CCCC2)NC(C)=C(C(C)=O)C1c1csc2c(Br)cccc12` (stereo not shown) [Example C105, Methyl 5-acetyl-4-(7-bromobenzo[b]thiophen-3-yl)-2-cyclopentyl-6-methyl-1,4-dihydropyridine-3-carboxylate] as the compound, how does the IC50 read?
Answer: 100 to 1000 nM

Question: Which IC50 does the source give for `COC(=O)C1=C(C)NC(N)=C(C(=O)OCC(F)(F)F)C1c1csc2c(C#N)cccc12` (stereo not shown) [Example D50, 5-Methyl 3-(2,2,2-trifluoroethyl) 2-amino-4-(7-cyanobenzo[b]thiophen-3-yl)-6-methyl-1,4-dihydropyridine-3,5-dicarboxylate] here?
Answer: < 100 nM

Question: Which IC50 does the source give for `COC(=O)C1=C(C(F)(F)F)NC(N)=C(C(=O)OCC2CC2)C1c1csc2c(C#N)cccc12` (stereo not shown) [Example D56, 3-(Cyclopropylmethyl) 5-methyl 2-amino-4-(7-cyanobenzo[b]thiophen-3-yl)-6-(trifluoromethyl)-1,4-dihydropyridine-3,5-dicarboxylate] here?
Answer: < 100 nM

Question: With `COC(=O)C1=C(C2CC2)NC(C)=C(C(C)=O)C1c1csc2c(-c3ccncc3)cccc12` (stereo not shown) [Example L13, Methyl 5-acetyl-2-cyclopropyl-6-methyl-4-(7-(pyridin-4-yl)benzo[b]thiophen-3-yl)-1,4-dihydropyridine-3-carboxylate] as the compound, how does the IC50 read?
Answer: 100 to 1000 nM

Question: Which IC50 does the source give for `COC(=O)C1=C(NC(C)=O)NC(C)=C(C(C)=O)C1c1csc2ncc(F)cc12` (stereo not shown) [Example D15, Methyl 2-acetamido-5-acetyl-4-(5-fluorothieno[2,3-b]pyridin-3-yl)-6-methyl-1,4-dihydropyridine-3-carboxylate] here?
Answer: 100 to 1000 nM

Reference: US11453660B2, “Androgen receptor and glucocorticoid receptor modulators” (ONCOSTELLAE, S.L., priority 2017, dated 2022)
